# Results published in patent publication US9562031B1, “Phenethyldihydrobenzodioxolones and methods of use” (Sequoia Sciences, Inc., priority 2015, dated 2017).
# What was measured:
# UACC-62 cells = experiment: antiproliferation assay, UACC-62; format: cell-based; settings: Homo sapiens
# Procedure: (§1) For the antiproliferation assay, NCI-H460 (large cell lung carcinoma) or M14 (amelanotic melanoma) cells were grown in RPMI-1640 with 10% FBS supplemented with L-glutamine and HEPES. Cells were seeded into 96-well plates at 5×10^2 to 5×10^4 cells/well and allowed to adhere overnight; the medium was then removed. A stock solution of test compound in DMSO was diluted in medium to generate a series of working solutions. Aliquots (100 μl) of the working solutions were then added to the appropriate test wells to expose cells to the final concentrations of compound in a total volume of 100 μl. Seven different concentrations were tested, with 2-5 wells per concentration. Camptothecin was used as a positive control; wells containing vehicle without compound were used as negative controls. Plates were kept for 72 h in a 37° C., 5% CO2 incubator. After incubation, viable cells were detected with the CELLTITER 96 AQueous Non-Radioactive Cell Proliferation Assay (Promega), and IC50 values were determined using GraphPad Prism 5 software.
# (§2) Antiproliferation of several of the active compounds was tested against additional cell lines.
# [1] = tested on: M14 (amelanotic melanoma) cells; experiment: antiproliferation assay (72 h, CELLTITER 96), M14; format: cell-based, human; settings: Homo sapiens; Table 4
# Method in brief: (§3)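 Human M14 melanoma and NCI-H460 lung carcinoma cells in RPMI-1640/10% FBS, seeded at 5×10^2–5×10^4 cells/well and adhered overnight, then exposed to seven compound concentrations for 72 h at 37 °C. Viable cells read by CellTiter 96 AQueous (MTS); IC50 = concentration giving 50% of maximal growth inhibition.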
# A549 cells = experiment: antiproliferation assay, A549; format: cell-based; settings: Homo sapiens
# Procedure: as §1, §2
# PC-3 cells = experiment: antiproliferation assay, PC-3; format: cell-based; settings: Homo sapiens
# Procedure: as §1, §2
# SK-Mel-5 cells = experiment: antiproliferation assay, SK-Mel-5; format: cell-based; settings: Homo sapiens
# Procedure: as §1, §2
# U-87 MG cells = experiment: antiproliferation assay, U-87 MG; format: cell-based; settings: Homo sapiens
# Procedure: as §1, §2
# HCT-116 cells = experiment: antiproliferation assay, HCT-116; format: cell-based; settings: Homo sapiens
# Procedure: as §1, §2
# LOX-IMVI cells = experiment: antiproliferation assay, LOX-IMVI; format: cell-based; settings: Homo sapiens
# Procedure: as §1, §2
# SK-Mel-2 cells = experiment: antiproliferation assay, SK-Mel-2; format: cell-based; settings: Homo sapiens
# Procedure: as §1, §2
# [2] = tested on: NCI-H460 (large cell lung carcinoma) cells; experiment: antiproliferation assay (72 h, CELLTITER 96), NCI-H460; format: cell-based, human; settings: Homo sapiens, NCI-H460, Table 4; read-out: NCI-H460 IC50
# Method in brief: as §3
# NCI-H526 cells = experiment: antiproliferation assay, NCI-H526; format: cell-based; settings: Homo sapiens
# Procedure: as §1, §2
# NCI/ADR-RES cells = experiment: antiproliferation assay, NCI/ADR-RES; format: cell-based; settings: Homo sapiens
# Procedure: as §1, §2
# Compound 4 was tested for antiproliferation activity against several paclitaxel-resistant human cancer cell lines.
# NCI-H187 cells = experiment: antiproliferation assay, NCI-H187; format: cell-based; settings: Homo sapiens
# Procedure: as §1, §2
# NCI-H441 cells = experiment: antiproliferation assay, NCI-H441; format: cell-based; settings: Homo sapiens
# Procedure: as §1, §2
IC50 [1],IC50 (A549 cells),IC50 (PC-3 cells),IC50 (SK-Mel-5 cells),IC50 (U-87 MG cells),IC50 (HCT-116 cells),IC50 (SK-Mel-2 cells),IC50 [2],IC50 (NCI-H526 cells),IC50 (NCI-H187 cells),IC50 (NCI-H441 cells),SMILES,IC50 (UACC-62 cells),IC50 (LOX-IMVI cells),IC50 (NCI/ADR-RES cells)
81 nM,110 nM,66 nM,34 nM,100 nM,22 nM,110 nM,75 nM,–,–,–,"C=CC[C@H]1C[C@]2([C@H](C)Cc3ccc(OC)cc3)OCOC2=CC1=O [Compound 26, (6S,7aR)-6-allyl-7a-((R)-1-(4-methoxyphenyl)propan-2-yl)-7,7a-dihydrobenzo[d][1,3]dioxol-5(6H)-one]",96 nM,150 nM,–
7.9 nM,–,–,–,–,13 nM,–,83 nM,79 nM,46 nM,140 nM,"C=CC[C@H]1C[C@]2([C@@H](C)Cc3ccc(OC)c(O)c3)OCOC2=CC1=O [Compound 32, (6S,7aR)-6-allyl-7a-((S)-1-(3-hydroxy-4-methoxyphenyl)propan-2-yl)-7,7a-dihydrobenzo[d][1,3]dioxol-5(6H)-one]",–,12 nM,38 nM
